The values below come from US9187467B2, “2-phenyl benzothiazole linked imidazole compounds as potential anticancer agents and process for the preparation thereof” (Council of Scientific and Industrial Research, priority 2012, dated 2015).

SMILES strings stand for the structures. Some results are limits rather than exact numbers.

One assay has as its system COLO 205. In words: SRB anticancer assay, colon. As to conditions: Homo sapiens, COLO 205, 48 h. It is filed as cell-based, human. For orientation: The SRB assay estimates cell density from bound dye.
The next assay relates to MOLT-4. In words: SRB anticancer assay, leukemia. The note with it: for GI50: Homo sapiens, MOLT-4, 48 h; for Log10GI50: MOLT, present compounds. On the set-up: Log10GI50: unit not given here. It is filed as cell-based, human.
In a further assay the test system is EKVX. In words: SRB anticancer assay, non-small lung. It is filed as cell-based, human. Set-up: Log10GI50: unit not given here. The note with it: for GI50: Homo sapiens, 48 h; for Log10GI50: present compounds.
The subject of another assay is caspase-9. In words: Western blot, apoptosis proteins in MCF-7 cells. It is filed as cell-based. The note with it: 2 μM, 24h. Here is the method:
(§1) FIG. 3 represents effect of compound 7d and 7h on p21 and caspase-9. MCF-7 cells were treated with 2 μM concentration of compounds 7d and 7h for 24h. The cell lysates were collected and probed with anti-bodies against p21 and caspase-9. beta-actin was used as loading control. Con: Control (untreated).
(§2) Activation of tumor suppressor gene p21 was the important regulator of apoptotic pathway caused by various stimuli. In many instances the apoptotic cell death is mediated by caspases, thus the possible involvement of p21 and caspase protein and its role in apoptosis has been investigated. MCF-7 cells were treated with 7d, 7h (the effective compounds of cell cycle arrest) 21a, 21d and CA-4 at 2 μM concentration.
For orientation: In western blotting, separated proteins are transferred to a membrane and probed.

A further assay relates to p21. In words: Western blot, apoptosis proteins in MCF-7 cells. As to conditions: 2 μM, 24h. It is filed as cell-based. Here is the method: as §1, §2
In another assay the test system is HCT-15. In words: SRB anticancer assay, colon. It is filed as cell-based, human. As to conditions: Homo sapiens, HCT-15, 48 h.
The test system of the next assay is HOP-62. In words: SRB anticancer assay, non-small lung. It is filed as cell-based, human. The note with it: for Log10GI50: HOP-62, present compounds; for GI50: Homo sapiens, HOP-62, 48 h.
For another assay, the system named is MDA-MB-435. In words: SRB anticancer assay, melanoma. It is filed as cell-based, human. On the set-up: Log10GI50: unit not given here. The note with it: for GI50: Homo sapiens, MDA-MB-435, 48 h; for Log10GI50: MDA-MB-435, present compounds.
The next assay concerns SW-620. In words: SRB anticancer assay, colon. On the set-up: Log10GI50: unit not given here. The note with it: for GI50: Homo sapiens, SW-620, 48 h; for Log10GI50: SW-620, present compounds. It is filed as cell-based, human.
The next assay has as its system MDA-MB-468. In words: SRB anticancer assay, breast. It is filed as cell-based, human. On the set-up: unit not given here. The note with it: present compounds.
Another assay deals with NCI/ADR-RES. In words: SRB anticancer assay, ovarian. On the set-up: Log10GI50: unit not given here. The note with it: for GI50: Homo sapiens, NCI/ADR-RES, 48 h; for Log10GI50: present compounds. It is filed as cell-based, human.
Another assay relates to RPMI-8226. In words: SRB anticancer assay, leukemia. It is filed as cell-based. The note with it: Homo sapiens, RPMI-8226, 48 h.
For the next assay, the system named is CAKI-1. In words: SRB anticancer assay, renal. It is filed as cell-based, human. Set-up: Log10GI50: unit not given here. As to conditions: for Log10GI50: CAKI-1, present compounds; for GI50: Homo sapiens, CAKI-1, 48 h.
Another assay relates to HOP-92. In words: SRB anticancer assay, non-small lung. It is filed as cell-based, human. On the set-up: Log10GI50: unit not given here. The note with it: for Log10GI50: HOP-92, present compounds; for GI50: Homo sapiens, HOP-92, 48 h.
Assay [1] deals with microtubule network of MCF-7 cells. In words: Effect on microtubule network. It is filed as cell-based. As to conditions: 2 μM. Here is the method: FIG. 2 represents effect of compound 7d, the effective compound on the microtubule network of MCF-7 cells untreated cells (Con), nocodazole (Noc) and 7d at 2 μM concentration. Microtubules and unassembled tubulin are shown in green and DNA was stained with nuclear dye DAPI (4,6-diamidino-2-phenylindole) is shown in blue colour.
Inhibition of tubulin is associated with G2/M cell cycle arrest by interrupting chromosome segregation and affecting mitotic spindle formation. […] It was considered of interest to understand the mechanism of anti-cancer activity of compound 7d with regard to interaction with microtubule system. MCF-7 breast cancer cells were treated with Nocodazole (Noc), 7d compounds at 2 μM concentration.

The test system of the next assay is HCC-2998. In words: SRB anticancer assay, colon. It is filed as cell-based, human. The note with it: Homo sapiens; HCC-2998, 48 h.
For assay [2], the system named is sixty human cancer cell lines. In words: SRB anticancer assay, all cell lines. It is filed as cell-based. As to conditions: all the cell lines; exposure at least 48 h.
For a further assay, the system named is CCRF-CEM. In words: SRB anticancer assay, leukemia. It is filed as cell-based, human. Set-up: Log10GI50: unit not given here. As to conditions: for GI50: Homo sapiens, 48 h; for Log10GI50: present compounds.
A further assay has as its system M14. In words: SRB anticancer assay, melanoma. On the set-up: Log10GI50: unit not given here. It is filed as cell-based, human. The note with it: for GI50: Homo sapiens, M14, 48 h; for Log10GI50: M14, present compounds.
The mark [3] stands for this setting: NCI/ADR-RES (row head NCI/ADR-).
[4] abbreviates: listed as head printed RES (second line of NCI/ADR-RES).

Broadly, the GI50 is the concentration that inhibits growth by half. On to `COc1cc(OC)cc(-c2cncn2-c2ccc(-c3nc4cc(OC)c(OC)c(OC)c4s3)cc2)c1` [Compound 7d, 2-(4-(5-(3,5-Dimethoxyphenyl)-1H-imidazol-1-yl)phenyl)-5,6,7-trimethoxybenzo[d]thiazole], for which the GI50 in the assay with COLO 205 stood at 3.85 µM; with MOLT-4 it was 4.11 µM; in the assay with EKVX, 1.87 µM; in the assay with HCT-15, 5.72 µM; with HOP-62, 26.4 µM; with MDA-MB-435, 6.07 µM. For the same molecule, the GI50 with SW-620 was 13.7 µM; with NCI/ADR-RES, 11 µM; with RPMI-8226, 2.9 µM; with CAKI-1, 3.79 µM; in the assay with HOP-92, above 100 µM; with HCC-2998, above 100 µM. In addition, the Log10GI50 in the assay on MOLT-4 is −5.39; in the assay on EKVX, −5.73; with HOP-62 it was −4.58 log10 M; with MDA-MB-435, −5.22; in the assay with SW-620 it was −4.86; with MDA-MB-468, −4.97. Moreover, the Log10GI50 was −4.96 with NCI/ADR-RES (setting [3]), −4.30 in the assay with NCI/ADR-RES (setting [4]), −5.42 in the assay on CAKI-1 and above −4.0 in the assay on HOP-92. In addition, the “caspase-9 protein (Western blot)” value in the assay on caspase-9 is “increase”. In addition, the “p21 protein (Western blot)” value in the assay with p21 is “increase”. Moreover, the microtubulin organization result in assay [1] was “disrupted microtubulin organization”.
On to `COc1cc(OC)c2sc(-c3ccc(-n4cncc4-c4ccc(OC)c(OC)c4)cc3)nc2c1` [Compound 6e, 2-(4-(5-(3,4-Dimethoxyphenyl)-1H-imidazol-1-yl)phenyl)-5,7-dimethoxybenzo[d]thiazole], for which the GI50 was above 100 µM in the assay on HCT-15; 35.5 µM in the assay with HOP-62; above 100 µM with SW-620; above 100 µM with NCI/ADR-RES; above 100 µM in the assay on RPMI-8226; above 100 µM in the assay with CCRF-CEM. Besides, the GI50 with M14 and with HCC-2998 was above 100 µM throughout. Besides, the “mean graph midpoint values (MG_MID) of log10LC50, range” value in assay [2] was −4.00.
Regarding `COc1cc(OC)c2sc(-c3ccc(-n4cncc4-c4cc(OC)c(OC)c(OC)c4)cc3)nc2c1` [Compound 6f, 5,7-Dimethoxy-2-(4-(5-(3,4,5-trimethoxyphenyl)-1H-imidazol-1-yl)phenyl)benzo[d]thiazole], the GI50 was found to be 4.51 µM with COLO 205; 4.24 µM with MOLT-4; 5.09 µM in the assay on EKVX; 5.48 µM in the assay on HCT-15; 75.9 µM in the assay with HOP-62; 3.41 µM in the assay on MDA-MB-435. Besides, the GI50 is 5.96 µM with SW-620; 5.65 µM with NCI/ADR-RES; 5.39 µM in the assay on RPMI-8226; 3.95 µM with CCRF-CEM; 7.91 µM in the assay on M14; above 100 µM in the assay on HCC-2998. Further, in [2], the “mean graph midpoint values (MG_MID) of log10LC50, range” value is given as −4.00. In assay [2], the “mean graph midpoint values (MG_MID) of log10TGI, range” value is listed as −4.00.
On to `COc1cc(OC)cc(-c2cncn2-c2ccc(-c3nc4cc(OC)cc(OC)c4s3)cc2)c1` [Compound 6d, 2-(4-(5-(3,5-Dimethoxyphenyl)-1H-imidazol-1-yl)phenyl)-5,7-dimethoxybenzo[d]thiazole], for which the GI50 with HOP-62 was 6.65 µM; in the assay on MDA-MB-435 it was 1.53 µM; in the assay on NCI/ADR-RES, 2.58 µM; in the assay with CAKI-1, 2.13 µM; in the assay with HCC-2998 it was above 100 µM. The “mean graph midpoint values (MG_MID) of log10LC50, range” value in assay [2] was −4.00.
With `COc1cc(-c2cncn2-c2ccc(-c3nc4ccc(F)cc4s3)cc2)ccc1F` [Compound 4c, 6-Fluoro-2-(4-(5-(4-fluoro-3-methoxyphenyl)-1H-imidazol-1-yl)phenyl)benzo[d]thiazole], the concentration for 50% growth inhibition (GI50) in the assay on COLO 205 came out at 56.8 µM; in the assay on MOLT-4, 3.41 µM; in the assay with HCT-15 it was 82.3 µM; with HOP-62, 40.7 µM; in the assay on MDA-MB-435, 17.1 µM; in the assay on SW-620 it was 7.81 µM. Also, the GI50 with NCI/ADR-RES is 30.6 µM; in the assay on RPMI-8226, 4.11 µM; in the assay with CAKI-1 it was above 100 µM; with CCRF-CEM, 6.92 µM; with M14, 33.4 µM; in the assay with HOP-92 it was 5.47 µM. Further, the GI50 with HCC-2998 was above 100 µM. Further, the Log10GI50 was −5.47 with MOLT-4; −4.39 log10 M in the assay on HOP-62; −4.77 in the assay on MDA-MB-435; −5.11 in the assay on SW-620; −4.96 in the assay on MDA-MB-468; −4.51 in the assay with NCI/ADR-RES (setting [3]). Also, the Log10GI50 in the assay on NCI/ADR-RES (setting [4]) is recorded as above −4.0; in the assay with CCRF-CEM, −5.16; with M14, −4.48; with HOP-92 it was −5.26.
As to `COc1cc2nc(-c3ccc(-n4cncc4-c4ccc(N)cc4)cc3)sc2c(OC)c1OC` [Compound 7h, 4-(1-(4-(5,6,7-Trimethoxybenzo[d]thiazol-2-yl)phenyl)-1H-imidazol-5-yl)benzenamine], the GI50 in the assay with EKVX is 2.49 µM; in the assay with NCI/ADR-RES it was 1.61 µM; in the assay on CAKI-1, 1.41 µM; in the assay on M14, 2.1 µM; in the assay with HOP-92, 0.446 µM. The Log10GI50 in the assay with EKVX is −5.60; in the assay on MDA-MB-468, −5.74; with NCI/ADR-RES (setting [3]) it was −5.79; with NCI/ADR-RES (setting [4]), −4.93; in the assay with CAKI-1, −5.85; in the assay with M14 it was −5.68. In the assay on HOP-92, this molecule displayed a Log10GI50 of −6.35. Besides, the “caspase-9 protein (Western blot)” value in the assay with caspase-9 is given as “increase”. The “p21 protein (Western blot)” value with p21 is listed as “increase”.
`COc1ccc(-c2cncn2-c2ccc(-c3nc4cc(OC)c(OC)c(OC)c4s3)cc2)cc1N` [Compound 7j, 2-Methoxy-5-(1-(4-(5,6,7-trimethoxybenzo[d]thiazol-2-yl)phenyl)-1H-imidazol-5-yl)benzeneamine]: the GI50 is 2.94 µM in the assay with COLO 205; 4 µM with MOLT-4; 7.54 µM in the assay on EKVX; 4.02 µM in the assay on HCT-15; 3.13 µM with MDA-MB-435; 6.21 µM in the assay with SW-620. Further, the GI50 with NCI/ADR-RES was 3.12 µM; in the assay on CAKI-1, 4.82 µM; in the assay on CCRF-CEM, 3.41 µM; in the assay with M14, 5.91 µM. Also, the Log10GI50 is listed as −5.40 in the assay on MOLT-4; −5.12 in the assay on EKVX; −5.50 in the assay on MDA-MB-435; −5.21 in the assay with SW-620; −5.07 with MDA-MB-468; −5.51 in the assay with NCI/ADR-RES (setting [3]). Moreover, the Log10GI50 in the assay with NCI/ADR-RES (setting [4]) was above −4.0; with CAKI-1, −5.32; in the assay on CCRF-CEM, −5.47; with M14, −5.23. Also, the “mean graph midpoint values (MG_MID) of log10LC50, range” value in assay [2] is reported as −4.00.
